The source of these data is publication PMC10450187, “Ncs2* mediates in vivo virulence of pathogenic yeast through sulphur modification of cytoplasmic transfer RNA” (Nucleic Acids Research, 2023).

One assay concerns the target T1, CtNcs2 (Thermochaetoides thermophila, UniProt G0SFJ9).
T1 construct: gene NCS2; codon-optimized, E. coli BL21(DE3) pRARE, pETM30 N-terminal 6xHis-GST tag (TEV-cleavable, optionally cleaved), GSTrap, heparin, size exclusion
T1 sequence (G0SFJ9 1-406): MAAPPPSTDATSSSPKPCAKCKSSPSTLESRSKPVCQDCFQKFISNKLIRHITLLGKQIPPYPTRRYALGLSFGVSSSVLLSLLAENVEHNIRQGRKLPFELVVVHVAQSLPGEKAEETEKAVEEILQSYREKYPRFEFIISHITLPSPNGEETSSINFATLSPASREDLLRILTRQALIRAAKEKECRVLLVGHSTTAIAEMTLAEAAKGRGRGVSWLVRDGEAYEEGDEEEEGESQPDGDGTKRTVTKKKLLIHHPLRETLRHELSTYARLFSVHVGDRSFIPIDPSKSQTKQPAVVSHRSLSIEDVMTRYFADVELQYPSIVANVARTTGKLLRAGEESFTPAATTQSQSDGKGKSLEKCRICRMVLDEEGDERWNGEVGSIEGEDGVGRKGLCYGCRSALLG
The assay is described as follows: thermal shift assay (SYPRO Orange). To be noted: 2 mM MgCl2, 20 mM Tris pH 8, 150 mM NaCl, 1 mM DTT. The assay is classed as binding.

In assay [1] the target is Ncs6 (Needs-Cla4-to-Survive 6), S. cerevisiae (S. cerevisiae, UniProt P53088 1-359). The assay is described as follows: two-hybrid. To be noted: partners not purified.
Chain of Ncs6 (Needs-Cla4-to-Survive 6), S. cerevisiae (P53088 whole entry): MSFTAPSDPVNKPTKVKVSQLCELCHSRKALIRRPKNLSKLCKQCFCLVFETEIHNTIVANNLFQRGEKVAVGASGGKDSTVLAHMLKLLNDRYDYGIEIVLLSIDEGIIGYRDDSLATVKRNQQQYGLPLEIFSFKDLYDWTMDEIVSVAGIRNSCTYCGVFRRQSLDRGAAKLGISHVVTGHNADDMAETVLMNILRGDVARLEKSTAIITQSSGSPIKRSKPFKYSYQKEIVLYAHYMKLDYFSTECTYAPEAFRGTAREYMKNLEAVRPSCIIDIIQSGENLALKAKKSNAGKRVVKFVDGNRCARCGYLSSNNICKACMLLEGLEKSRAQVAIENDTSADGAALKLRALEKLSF

For the molecule `Nc1ncnc2c1ncn2[C@@H]1O[C@H](COP(=O)(O)OP(=O)(O)O)[C@@H](O)[C@H]1O` [ADP], the melting temperature entry on CtNcs2 (1 mM ADP) is “stability of Ncs2 increases significantly, when it is bound to ATP, ADP or the non-hydrolysable AMP-PNP”.

For `Nc1ncnc2c1ncn2[C@@H]1O[C@H](COP(=O)(O)OP(=O)(O)NP(=O)(O)O)[C@@H](O)[C@H]1O` [AMP-PNP], the melting temperature result on CtNcs2 (1 mM AMP-PNP) is “stability of Ncs2 increases significantly, when it is bound to ATP, ADP or the non-hydrolysable AMP-PNP”. As to `Nc1ncnc2c1ncn2[C@@H]1O[C@H](COP(=O)(O)OP(=O)(O)OP(=O)(O)O)[C@@H](O)[C@H]1O` [ATP], the melting temperature result at CtNcs2 (1 mM ATP) is reported as “stability of Ncs2 increases significantly, when it is bound to ATP, ADP or the non-hydrolysable AMP-PNP”.

B1: Ncs2* (Ncs2 H71L), S. cerevisiae (natural protein)
chain: MECQRCPASARNPATVESRKEKFCDECFIKFVSTKQRKQMMKDEYFRNLFKVIYPFEKEGSVSKILLPLSLSDSGSLVMLDIVHDLLLEQTKQHNNRTGFTVDVLTVFTEENVSVIKERMESLINEKMSQLNKISNIFNVHFIDVNEFFNNASEVSTFIIDNENFEIFSKSKSVDDSNILTLKEILGKYCLNNSSRSDLISIIKTQLIKHFAYENGYNAIMWGHSMTKLSEVIISLVVKGKGSQIATFLDSESFDTLNNKPCKYKNLYPMKDLLSVEIESFLQIRNLAQFLINVEETNVKPNCLIARKSLPSLGQQKLVKNMTINEITNKYFQDIQNDYSNIISTVLRTADKLTQPKSSMAKPSQCQICQSKIYTNPSNWLNRITVTSPYPVETTEEKYLFKQWQDSKLGQSHTHYVELLNEIKQGASNSLDVEDGDVKLCYGCLILLNTSIKDKNLVWPKVDTMDITANATNKNKELSQILDQFEINSDGEE
As for B1, the “Miller units (beta-galactosidase, two-hybrid)” value (shortened to “Miller units”) in assay [1] was 252 MU.

B2: Ncs2^H71I, S. cerevisiae (natural protein)
chain: MECQRCPASARNPATVESRKEKFCDECFIKFVSTKQRKQMMKDEYFRNLFKVIYPFEKEGSVSKILLPLSISDSGSLVMLDIVHDLLLEQTKQHNNRTGFTVDVLTVFTEENVSVIKERMESLINEKMSQLNKISNIFNVHFIDVNEFFNNASEVSTFIIDNENFEIFSKSKSVDDSNILTLKEILGKYCLNNSSRSDLISIIKTQLIKHFAYENGYNAIMWGHSMTKLSEVIISLVVKGKGSQIATFLDSESFDTLNNKPCKYKNLYPMKDLLSVEIESFLQIRNLAQFLINVEETNVKPNCLIARKSLPSLGQQKLVKNMTINEITNKYFQDIQNDYSNIISTVLRTADKLTQPKSSMAKPSQCQICQSKIYTNPSNWLNRITVTSPYPVETTEEKYLFKQWQDSKLGQSHTHYVELLNEIKQGASNSLDVEDGDVKLCYGCLILLNTSIKDKNLVWPKVDTMDITANATNKNKELSQILDQFEINSDGEE
With B2, the “Miller units” value in assay [1] worked out at 109 MU.

B3: Ncs2^H71A, S. cerevisiae (natural protein)
chain: MECQRCPASARNPATVESRKEKFCDECFIKFVSTKQRKQMMKDEYFRNLFKVIYPFEKEGSVSKILLPLSASDSGSLVMLDIVHDLLLEQTKQHNNRTGFTVDVLTVFTEENVSVIKERMESLINEKMSQLNKISNIFNVHFIDVNEFFNNASEVSTFIIDNENFEIFSKSKSVDDSNILTLKEILGKYCLNNSSRSDLISIIKTQLIKHFAYENGYNAIMWGHSMTKLSEVIISLVVKGKGSQIATFLDSESFDTLNNKPCKYKNLYPMKDLLSVEIESFLQIRNLAQFLINVEETNVKPNCLIARKSLPSLGQQKLVKNMTINEITNKYFQDIQNDYSNIISTVLRTADKLTQPKSSMAKPSQCQICQSKIYTNPSNWLNRITVTSPYPVETTEEKYLFKQWQDSKLGQSHTHYVELLNEIKQGASNSLDVEDGDVKLCYGCLILLNTSIKDKNLVWPKVDTMDITANATNKNKELSQILDQFEINSDGEE
B3: the “Miller units” value in assay [1] was 130 MU.
